Results published in ChEMBL document CHEMBL1201862, “PubChem BioAssay data set” (2004).
Calls of active or inactive are those of the source.

What was measured:
[1] = NIH3T3 cell viability loss – ATP luminescence, mouse fibroblasts, counter-screen, dose response (AID 2010); format: functional, cell-based;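 note: cells exposed to compound for about 90 hours before reading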
Protein RecA = target: T1, Protein RecA (Mycobacterium tuberculosis, UniProt P9WHJ3); assay: Fluorescence Cell-Free Homogeneous Dose Retest to Identify Inhibitors of RecA-Intein Splicing Activity. [Related pubchem assays (depositor defined):AID2097, AID2223, AID489010, AID492950]; format: functional
T1 sequence (P9WHJ3 whole entry): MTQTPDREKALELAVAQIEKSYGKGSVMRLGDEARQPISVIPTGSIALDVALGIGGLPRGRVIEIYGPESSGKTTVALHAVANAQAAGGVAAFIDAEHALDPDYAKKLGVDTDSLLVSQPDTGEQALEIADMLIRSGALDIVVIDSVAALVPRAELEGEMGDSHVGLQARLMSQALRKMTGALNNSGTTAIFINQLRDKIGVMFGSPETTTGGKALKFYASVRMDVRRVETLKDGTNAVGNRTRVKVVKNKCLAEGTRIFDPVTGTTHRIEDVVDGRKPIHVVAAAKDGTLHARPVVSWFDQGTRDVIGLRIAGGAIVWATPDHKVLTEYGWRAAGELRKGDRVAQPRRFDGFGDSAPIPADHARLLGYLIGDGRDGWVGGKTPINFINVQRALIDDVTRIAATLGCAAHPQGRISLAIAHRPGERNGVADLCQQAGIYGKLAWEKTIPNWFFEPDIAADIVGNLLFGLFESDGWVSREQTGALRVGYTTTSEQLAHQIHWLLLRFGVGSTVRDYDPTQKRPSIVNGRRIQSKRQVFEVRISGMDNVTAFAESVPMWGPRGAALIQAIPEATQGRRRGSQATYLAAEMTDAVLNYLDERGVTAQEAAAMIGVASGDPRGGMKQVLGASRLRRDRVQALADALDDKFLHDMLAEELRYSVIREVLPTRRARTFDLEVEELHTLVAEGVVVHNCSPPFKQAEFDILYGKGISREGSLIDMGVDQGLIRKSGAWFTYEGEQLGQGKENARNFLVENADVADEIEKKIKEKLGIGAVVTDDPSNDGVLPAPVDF

[2] = target: C-X-C chemokine receptor type 5 (Homo sapiens, UniProt P32302); assay: inhibition of CXCL13-driven CXCR5 beta-arrestin recruitment – cell-based, luminescence, CHO-K1 PathHunter, selectivity assay for CCR6 antagonist project, SAR follow-up (AID 540340); format: functional
[3] = target: C-C chemokine receptor type 6 (Homo sapiens, UniProt P51684); assay: analog antagonism of CCR6 beta-arrestin signaling – cell-based, luminescent beta-arrestin readout, SAR follow-up (AID 540334); format: functional
[4] = target: T2, Heat shock factor protein 1 (Mus musculus, UniProt P38532); assay: enhancement of HSF1-driven luciferase signal – cell-based, NIH3T3, luminescence, dose retest, confirmation (AID 435004); format: functional;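 note: stress induced by proteasome inhibitor MG132 added 30 min after compound; luciferase reporter driven by HSF1 response element in NIH3T3 cells; actives raise luminescence as potentiators of the MG132 stress response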
T2 sequence (P38532 whole entry): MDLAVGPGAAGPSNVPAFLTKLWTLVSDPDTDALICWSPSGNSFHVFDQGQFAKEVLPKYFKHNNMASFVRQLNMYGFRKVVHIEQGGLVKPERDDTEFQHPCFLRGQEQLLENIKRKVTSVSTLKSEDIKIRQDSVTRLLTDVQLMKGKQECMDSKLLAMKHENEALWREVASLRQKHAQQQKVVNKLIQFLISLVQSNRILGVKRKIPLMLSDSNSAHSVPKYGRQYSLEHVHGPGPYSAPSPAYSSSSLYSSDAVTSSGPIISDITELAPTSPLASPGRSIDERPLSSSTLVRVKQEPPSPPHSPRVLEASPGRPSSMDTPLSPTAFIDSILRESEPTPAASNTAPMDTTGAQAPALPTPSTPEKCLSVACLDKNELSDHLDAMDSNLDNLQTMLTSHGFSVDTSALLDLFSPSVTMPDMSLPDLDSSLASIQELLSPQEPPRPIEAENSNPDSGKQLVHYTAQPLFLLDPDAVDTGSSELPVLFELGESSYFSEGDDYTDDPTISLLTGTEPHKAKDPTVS

[5] = Trypanosoma cruzi growth suppression in host cells – NIH3T3 host cells, beta-gal luminescence, confirmation (AID 2044); format: functional, cell-based;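 note: intracellular parasites grown in NIH/3T3 mouse fibroblasts as host cells; luminescent beta-galactosidase reporter signal from transgenic T. cruzi replicating inside host cells; inhibitors lower the luminescence signal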
[6] = target: T3, Replicative DNA helicase DnaB (Mycobacterium tuberculosis, UniProt P9WMR3); assay: DnaB intein splicing inhibitors, dose response, biochemical, cell-free fluorescence (AID 449749); format: functional
T3 sequence (P9WMR3 whole entry): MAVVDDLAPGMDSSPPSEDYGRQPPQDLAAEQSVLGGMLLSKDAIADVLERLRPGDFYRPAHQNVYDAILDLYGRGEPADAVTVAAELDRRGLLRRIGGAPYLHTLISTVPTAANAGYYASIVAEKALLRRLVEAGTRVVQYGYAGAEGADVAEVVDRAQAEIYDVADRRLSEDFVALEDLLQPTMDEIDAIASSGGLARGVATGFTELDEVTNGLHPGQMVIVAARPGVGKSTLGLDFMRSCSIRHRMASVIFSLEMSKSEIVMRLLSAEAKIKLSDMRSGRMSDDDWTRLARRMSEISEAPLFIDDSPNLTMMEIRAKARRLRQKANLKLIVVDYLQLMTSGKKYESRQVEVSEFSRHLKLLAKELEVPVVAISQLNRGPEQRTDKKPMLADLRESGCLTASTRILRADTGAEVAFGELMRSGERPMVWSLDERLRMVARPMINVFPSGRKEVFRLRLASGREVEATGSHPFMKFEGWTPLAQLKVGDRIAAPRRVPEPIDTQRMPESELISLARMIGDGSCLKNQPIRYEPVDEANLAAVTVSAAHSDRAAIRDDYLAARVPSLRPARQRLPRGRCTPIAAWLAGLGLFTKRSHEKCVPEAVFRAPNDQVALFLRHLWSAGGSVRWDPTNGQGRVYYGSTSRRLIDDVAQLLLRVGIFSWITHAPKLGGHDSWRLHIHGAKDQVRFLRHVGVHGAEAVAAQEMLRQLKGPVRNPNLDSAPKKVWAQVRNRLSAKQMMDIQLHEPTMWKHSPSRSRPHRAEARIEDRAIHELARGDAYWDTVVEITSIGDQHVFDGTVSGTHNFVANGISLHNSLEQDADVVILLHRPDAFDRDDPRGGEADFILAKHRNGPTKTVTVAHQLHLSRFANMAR

Apelin receptor = Apelin receptor (Homo sapiens, UniProt P35414); assay: apelin receptor antagonists, arrestin read-out – cell-based, luminescent, enzyme-fragment complementation, selectivity assay for CCR6 antagonist project, SAR follow-up (AID 588359); format: functional
[7] = target: T4, High affinity choline transporter 1 (Homo sapiens, UniProt Q9GZV3); assay: human choline transporter potentiators, potency – cell-based, 10-point CRC, membrane potential dye, dose response (AID 602376); format: functional
T4 sequence (Q9GZV3 whole entry): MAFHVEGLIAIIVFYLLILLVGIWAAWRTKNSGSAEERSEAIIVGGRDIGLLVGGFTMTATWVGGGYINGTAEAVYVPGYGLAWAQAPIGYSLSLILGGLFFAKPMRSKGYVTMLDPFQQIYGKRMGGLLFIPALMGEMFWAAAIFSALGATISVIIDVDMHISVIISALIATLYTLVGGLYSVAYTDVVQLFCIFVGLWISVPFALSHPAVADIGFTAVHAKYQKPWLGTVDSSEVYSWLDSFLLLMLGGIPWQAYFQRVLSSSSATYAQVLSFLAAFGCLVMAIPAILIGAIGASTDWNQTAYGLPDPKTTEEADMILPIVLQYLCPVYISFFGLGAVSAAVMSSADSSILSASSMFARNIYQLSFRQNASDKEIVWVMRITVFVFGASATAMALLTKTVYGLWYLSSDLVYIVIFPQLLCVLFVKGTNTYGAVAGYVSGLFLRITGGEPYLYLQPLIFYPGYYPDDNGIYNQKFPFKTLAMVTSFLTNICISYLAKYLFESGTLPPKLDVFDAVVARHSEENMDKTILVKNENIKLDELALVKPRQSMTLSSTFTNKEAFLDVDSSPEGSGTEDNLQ

Estrogen receptor beta = Estrogen receptor beta (Homo sapiens, UniProt Q92731); assay: blockers of SRC-3 recruitment to ERβ – biochemical, ELISA, streptavidin-HRP readout, orthogonal assay, confirmation (AID 1060)
Aminopeptidase N = target: T5, Aminopeptidase N (Plasmodium falciparum FcB1/Columbia, UniProt O96935); assay: malaria alanyl aminopeptidase activity blockers – biochemical, fluorogenic H-Leu-NHMec substrate, 1536-well (AID 1445); design: species or system Plasmodium falciparum 3D7, 3D7
T5 sequence (O96935 whole entry): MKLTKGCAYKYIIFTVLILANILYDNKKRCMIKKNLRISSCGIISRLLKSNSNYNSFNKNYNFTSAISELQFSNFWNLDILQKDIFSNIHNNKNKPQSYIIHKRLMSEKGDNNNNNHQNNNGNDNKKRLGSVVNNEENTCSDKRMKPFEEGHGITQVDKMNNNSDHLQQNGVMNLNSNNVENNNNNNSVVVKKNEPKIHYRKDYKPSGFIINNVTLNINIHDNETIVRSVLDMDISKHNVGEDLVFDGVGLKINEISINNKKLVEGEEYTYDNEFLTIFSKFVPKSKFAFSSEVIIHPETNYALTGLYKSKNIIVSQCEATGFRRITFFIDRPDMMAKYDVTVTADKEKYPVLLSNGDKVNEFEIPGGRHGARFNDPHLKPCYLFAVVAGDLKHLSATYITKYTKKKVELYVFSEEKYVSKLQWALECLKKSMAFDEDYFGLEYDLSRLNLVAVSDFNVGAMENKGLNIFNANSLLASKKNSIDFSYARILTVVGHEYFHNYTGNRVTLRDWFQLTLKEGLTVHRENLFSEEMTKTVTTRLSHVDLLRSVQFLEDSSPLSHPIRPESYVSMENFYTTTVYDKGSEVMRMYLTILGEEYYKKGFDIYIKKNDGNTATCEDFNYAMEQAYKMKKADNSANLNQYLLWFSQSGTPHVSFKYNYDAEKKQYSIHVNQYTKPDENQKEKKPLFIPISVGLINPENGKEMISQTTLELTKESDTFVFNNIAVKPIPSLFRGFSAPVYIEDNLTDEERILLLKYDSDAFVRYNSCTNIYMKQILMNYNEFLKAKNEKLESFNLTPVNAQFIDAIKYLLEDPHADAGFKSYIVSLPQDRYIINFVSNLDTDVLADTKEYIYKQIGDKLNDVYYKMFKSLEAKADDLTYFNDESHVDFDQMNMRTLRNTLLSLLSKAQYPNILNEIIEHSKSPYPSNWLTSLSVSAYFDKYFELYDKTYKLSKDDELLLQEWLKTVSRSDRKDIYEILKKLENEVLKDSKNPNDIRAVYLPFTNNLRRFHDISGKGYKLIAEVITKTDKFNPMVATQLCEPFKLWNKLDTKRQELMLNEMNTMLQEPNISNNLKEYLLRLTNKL

Phospholipase A2 = Phospholipase A2 (Homo sapiens, UniProt P04054); format: functional;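 note: confirmatory dose-response counterscreen on phospholipase A2, testing hits that came from an ultra-high-throughput screen for ATG4B inhibitors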
Streptococcus = assay: GAS UMAA2166 growth inhibition – luminescence, BacTiterGlo, counter-screen for streptokinase expression inhibitor project, dose response (AID 1915); format: functional, organism-based;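 note: potency for reduction of bacterial viability or growth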
Streptokinase A = target: T6, Streptokinase A (Streptococcus pyogenes serotype M1, UniProt P10520); assay: viability-normalized secreted streptokinase activity reduction – plasminogen activation absorbance, OD405, dose response (AID 1914); format: functional, Streptococcus pyogenes M1 GAS;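 note: secreted streptokinase activity via plasminogen activation per viability signal from cell pellet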
T6 sequence (P10520 whole entry): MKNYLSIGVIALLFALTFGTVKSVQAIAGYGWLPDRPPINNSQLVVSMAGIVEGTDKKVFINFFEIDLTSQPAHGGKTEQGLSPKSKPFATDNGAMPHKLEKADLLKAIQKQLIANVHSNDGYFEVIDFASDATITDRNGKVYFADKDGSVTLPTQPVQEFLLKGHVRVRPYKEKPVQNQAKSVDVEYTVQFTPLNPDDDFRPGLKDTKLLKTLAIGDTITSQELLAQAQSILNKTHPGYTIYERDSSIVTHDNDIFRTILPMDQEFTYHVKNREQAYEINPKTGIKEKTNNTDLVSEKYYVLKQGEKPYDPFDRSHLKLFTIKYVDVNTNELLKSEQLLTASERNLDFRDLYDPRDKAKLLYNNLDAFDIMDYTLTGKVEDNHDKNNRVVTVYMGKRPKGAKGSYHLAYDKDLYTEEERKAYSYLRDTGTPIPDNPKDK

[8] = target: T7, Induced myeloid leukemia cell differentiation protein Mcl-1 (Homo sapiens, UniProt Q07820); assay: blockers of MCL1 binding to BIM peptide – biochemical, fluorescence polarization, BIM-BH3 peptide, 1536-well, dose response (AID 2217)
[9] = THP-1 cell cytotoxicity, dose response, cytotoxicity control for non-replicating M. tuberculosis project (AID 489025); format: functional
[10] = tested on: Streptococcus sp. 'group A'; assay: Streptococcus pyogenes SK(-)GAS viability under kanamycin – luminescence, BacTiterGlo, confirmation, counter-screen for streptokinase expression inhibitor project, dose response (AID 1900); format: functional, organism-based
[11] = viability of uninfected HEp-2 cells – cell-based, HTS, cytotoxicity control for RSV inhibitor project, dose response (AID 2410); format: functional; details: human respiratory syncytial virus
[12] = target: T7, Induced myeloid leukemia cell differentiation protein Mcl-1; format: functional
Cysteine protease ATG4B = Cysteine protease ATG4B (Homo sapiens, UniProt Q9Y4P1); format: functional;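 note: Fluorescence-based dose-response confirmation assay measuring inhibition of ATG4B activity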
[13] = Vero E6 cell cytotoxicity, dose response, cytotoxicity control for non-replicating M. tuberculosis project, secondary assay (AID 492998); format: functional, VeroE6; details: Vero C1008
Bcl-2-like protein 1 = Bcl-2-like protein 1 (Homo sapiens, UniProt Q07817); assay: blockers of BCLXL peptide binding – biochemical, fluorescence polarization, 1536-well, selectivity assay for MCL1 inhibitor project, dose response (AID 2218)
Chain of Bcl-2-like protein 1 (Q07817 whole entry): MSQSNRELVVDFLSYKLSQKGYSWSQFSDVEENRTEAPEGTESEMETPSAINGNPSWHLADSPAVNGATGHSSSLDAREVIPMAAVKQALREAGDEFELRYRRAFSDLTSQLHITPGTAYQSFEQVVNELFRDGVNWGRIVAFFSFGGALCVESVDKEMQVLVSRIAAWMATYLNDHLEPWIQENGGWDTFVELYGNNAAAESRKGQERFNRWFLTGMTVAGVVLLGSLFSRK

T7 sequence (Q07820 whole entry): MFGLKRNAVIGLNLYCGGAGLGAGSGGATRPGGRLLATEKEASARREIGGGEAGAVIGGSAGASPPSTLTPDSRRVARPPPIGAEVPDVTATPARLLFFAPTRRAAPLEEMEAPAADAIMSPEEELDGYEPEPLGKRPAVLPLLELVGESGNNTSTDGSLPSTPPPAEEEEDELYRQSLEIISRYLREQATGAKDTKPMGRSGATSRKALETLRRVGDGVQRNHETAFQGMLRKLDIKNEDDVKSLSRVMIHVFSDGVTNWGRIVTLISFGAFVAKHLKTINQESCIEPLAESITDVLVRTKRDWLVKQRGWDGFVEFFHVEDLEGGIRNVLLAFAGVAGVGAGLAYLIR
Chain of C-C chemokine receptor type 6 (P51684 whole entry): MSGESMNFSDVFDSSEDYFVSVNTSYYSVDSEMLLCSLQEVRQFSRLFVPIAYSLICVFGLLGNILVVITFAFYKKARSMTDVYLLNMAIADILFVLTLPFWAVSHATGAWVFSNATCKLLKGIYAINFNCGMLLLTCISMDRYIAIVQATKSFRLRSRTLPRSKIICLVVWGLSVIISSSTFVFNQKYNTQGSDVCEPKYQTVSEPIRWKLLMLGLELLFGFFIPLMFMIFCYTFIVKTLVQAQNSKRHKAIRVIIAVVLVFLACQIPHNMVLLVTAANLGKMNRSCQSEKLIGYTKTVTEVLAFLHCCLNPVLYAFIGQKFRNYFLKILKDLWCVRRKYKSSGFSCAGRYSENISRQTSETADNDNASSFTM
Chain of Estrogen receptor beta (Q92731 whole entry): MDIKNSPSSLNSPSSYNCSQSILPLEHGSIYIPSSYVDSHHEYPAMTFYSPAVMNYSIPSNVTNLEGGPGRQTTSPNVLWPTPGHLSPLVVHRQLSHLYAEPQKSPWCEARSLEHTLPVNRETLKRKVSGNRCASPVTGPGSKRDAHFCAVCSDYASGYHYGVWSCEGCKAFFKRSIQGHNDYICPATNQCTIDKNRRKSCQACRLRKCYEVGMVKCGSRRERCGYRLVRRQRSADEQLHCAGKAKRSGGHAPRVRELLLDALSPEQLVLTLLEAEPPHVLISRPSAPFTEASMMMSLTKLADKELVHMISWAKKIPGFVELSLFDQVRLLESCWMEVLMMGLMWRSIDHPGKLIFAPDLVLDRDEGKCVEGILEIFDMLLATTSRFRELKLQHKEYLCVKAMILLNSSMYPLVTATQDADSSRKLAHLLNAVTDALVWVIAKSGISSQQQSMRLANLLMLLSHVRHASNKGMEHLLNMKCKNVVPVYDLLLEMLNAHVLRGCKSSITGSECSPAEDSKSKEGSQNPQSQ
Chain of Phospholipase A2 (P04054 whole entry): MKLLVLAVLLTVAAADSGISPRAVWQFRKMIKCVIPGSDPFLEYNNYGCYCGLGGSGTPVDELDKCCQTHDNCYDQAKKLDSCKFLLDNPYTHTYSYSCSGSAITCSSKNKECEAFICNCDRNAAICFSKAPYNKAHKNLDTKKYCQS
Chain of Cysteine protease ATG4B (Q9Y4P1 whole entry): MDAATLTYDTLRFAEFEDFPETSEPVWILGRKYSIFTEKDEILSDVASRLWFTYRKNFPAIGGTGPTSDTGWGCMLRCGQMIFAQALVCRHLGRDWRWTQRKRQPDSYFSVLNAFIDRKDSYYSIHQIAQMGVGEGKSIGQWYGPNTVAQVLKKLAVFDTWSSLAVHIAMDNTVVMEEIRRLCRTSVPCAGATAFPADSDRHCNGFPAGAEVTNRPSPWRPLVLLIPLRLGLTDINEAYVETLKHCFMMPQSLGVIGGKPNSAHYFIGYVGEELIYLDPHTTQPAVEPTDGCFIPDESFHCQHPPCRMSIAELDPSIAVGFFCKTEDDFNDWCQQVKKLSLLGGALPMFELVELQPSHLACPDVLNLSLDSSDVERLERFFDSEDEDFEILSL
Chain of Apelin receptor (P35414 whole entry, the tested form may be a part): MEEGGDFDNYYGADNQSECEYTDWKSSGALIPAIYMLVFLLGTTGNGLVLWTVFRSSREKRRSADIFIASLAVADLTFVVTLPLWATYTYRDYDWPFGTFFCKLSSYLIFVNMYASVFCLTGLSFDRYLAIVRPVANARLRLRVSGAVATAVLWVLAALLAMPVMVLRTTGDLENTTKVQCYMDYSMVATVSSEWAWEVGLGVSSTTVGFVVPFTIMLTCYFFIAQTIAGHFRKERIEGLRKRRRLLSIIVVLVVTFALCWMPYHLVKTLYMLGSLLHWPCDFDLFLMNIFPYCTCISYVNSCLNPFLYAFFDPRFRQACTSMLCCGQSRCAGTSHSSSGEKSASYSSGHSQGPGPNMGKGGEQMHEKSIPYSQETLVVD
Chain of C-X-C chemokine receptor type 5 (P32302 whole entry): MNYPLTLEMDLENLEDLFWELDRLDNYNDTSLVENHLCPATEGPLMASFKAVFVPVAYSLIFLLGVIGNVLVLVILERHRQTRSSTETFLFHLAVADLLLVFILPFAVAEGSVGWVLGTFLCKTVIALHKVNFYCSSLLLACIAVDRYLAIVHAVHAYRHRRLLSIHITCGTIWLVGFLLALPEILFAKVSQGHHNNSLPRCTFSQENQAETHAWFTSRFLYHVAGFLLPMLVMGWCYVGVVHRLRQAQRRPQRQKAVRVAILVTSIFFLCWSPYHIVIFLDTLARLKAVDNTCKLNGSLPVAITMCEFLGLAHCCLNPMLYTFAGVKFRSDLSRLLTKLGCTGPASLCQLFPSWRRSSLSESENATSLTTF

CN1CCc2nc(SCc3ccc(Cl)cc3)c(C#N)c(-c3cccs3)c2C1
EC50 [1]: > 60 µM (not active)
EC50 (Protein RecA): 4.41 µM (active)
EC50 (cells): 0.014 µM (active)
IC50 [2]: 26.3 µM (inactive)
IC50 [3]: > 66.6 µM (inactive)
EC50 [4]: 10.1 µM (active)
EC50 [5]: < 0.1 µM (active)
AC50 [6]: > 380 µM (inactive)
IC50 (Apelin receptor): > 66.6 µM (inactive)

CC(c1ccccc1)N(CCC(c1ccccc1)C1CCOC(C)(C)C1)C(=O)c1ccco1 (stereo not drawn)
EC50 [7]: 5.67 µM (active)

C/C(=N/NC(=O)c1cc2ccccc2cc1O)C1C(=O)c2ccccc2C1=O
IC50 (Estrogen receptor beta): 0.0588 µM (not active)
IC50 (Aminopeptidase N): 12 µM (active)
IC50 (Phospholipase A2): 4.87 µM (active)
EC50 (Streptococcus): 10.1 µM (active)
EC50 (Streptokinase A): > 150 µM (not active)
IC50 [8]: > 109 µM (not active)
CC50 [9]: 17.7 µM (active)
EC50 [10]: 1.03 µM (active)
CC50 [11]: > 50 µM (active)
IC50 [12]: 2.11 µM (active)
IC50 (Cysteine protease ATG4B): 5.43 µM (active)
CC50 [13]: 16.7 µM (active)
IC50 (Bcl-2-like protein 1): > 109 µM (not active)
